Test results published in patent US12448394B2, “Heterocyclic pyrazole derivatives as type III receptor tyrosine kinase inhibitors” (DEVELOPMENT CENTER FOR BIOTECHNOLOGY, priority 2019, dated 2025).

Tests used:
[1] = biological target: T1, FLT3-D835Y mutant kinase (Homo sapiens, UniProt P36888, D835Y); experiment: FLT3-D835Y mutant kinase assay (AlphaScreen); assay type: biochemical; conditions: read-out: Ranking of IC50 values, FLT3-D835Y
T1 construct: purchased SignalChem
T1 sequence (P36888 27-993 D835Y): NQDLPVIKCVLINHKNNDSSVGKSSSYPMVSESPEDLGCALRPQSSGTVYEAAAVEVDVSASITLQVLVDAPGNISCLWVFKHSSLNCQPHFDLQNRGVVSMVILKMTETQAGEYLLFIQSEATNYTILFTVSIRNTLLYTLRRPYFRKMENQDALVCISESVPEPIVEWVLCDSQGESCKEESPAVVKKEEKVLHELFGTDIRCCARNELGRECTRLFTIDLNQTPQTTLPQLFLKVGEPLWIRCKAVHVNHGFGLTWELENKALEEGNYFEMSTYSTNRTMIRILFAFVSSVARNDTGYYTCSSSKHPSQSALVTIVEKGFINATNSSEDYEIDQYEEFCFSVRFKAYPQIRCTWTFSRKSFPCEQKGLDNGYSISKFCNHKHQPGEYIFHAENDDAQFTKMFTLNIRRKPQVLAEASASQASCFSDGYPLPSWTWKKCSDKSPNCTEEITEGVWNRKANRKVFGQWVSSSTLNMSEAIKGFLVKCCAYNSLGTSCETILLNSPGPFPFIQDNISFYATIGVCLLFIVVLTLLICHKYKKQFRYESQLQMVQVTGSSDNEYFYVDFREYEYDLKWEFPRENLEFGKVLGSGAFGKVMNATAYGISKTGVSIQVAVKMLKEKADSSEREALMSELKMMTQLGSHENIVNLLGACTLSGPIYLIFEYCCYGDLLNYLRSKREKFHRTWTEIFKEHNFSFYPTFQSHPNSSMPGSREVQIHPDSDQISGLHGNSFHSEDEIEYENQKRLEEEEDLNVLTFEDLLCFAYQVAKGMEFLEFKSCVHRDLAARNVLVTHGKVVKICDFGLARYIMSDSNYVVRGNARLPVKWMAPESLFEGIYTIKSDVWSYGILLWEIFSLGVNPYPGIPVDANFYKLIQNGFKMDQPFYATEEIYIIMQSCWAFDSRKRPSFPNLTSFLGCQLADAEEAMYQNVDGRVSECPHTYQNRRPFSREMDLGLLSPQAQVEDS
How it was run: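 AlphaScreen readout of biotin-poly(Glu4:Tyr1) phosphorylation by 1 ng recombinant FLT3-D835Y. Conditions were 10 μM ATP, 10 mM MgCl2, MOPS pH 7.0, 30 min at 30 °C, EDTA stop. Compounds were serially diluted in duplicate to derive IC50.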

[2] = biological target: T2, MET kinase (Homo sapiens, UniProt P08581); experiment: MET kinase assay (AlphaScreen, counter screen); assay type: biochemical; conditions: read-out: Ranking of IC50 values, MET
T2 construct: purchased SignalChem
How it was run: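 IC50 came from duplicate serial dilutions, with AlphaScreen detection of phosphorylated biotin-poly(Glu4:Tyr1). The reaction used 1 ng recombinant MET, 10 µM ATP […], and MOPS pH 7.0/MgCl2 buffer, ran 45 min at 30 °C, and was quenched with EDTA.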

[3] = tested on: Molm-14 human acute myeloid leukemia cell with FLT3-ITD mutation; experiment: Molm-14 cell proliferation assay (CellTiter 96); assay type: cell-based; conditions: Homo sapiens; Molm-14 cells, 72 hours treatment, CellTiter96; read-out: anti-proliferation activity Molm-14 (FLT3-ITD), IC50 ranking
How it was run: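 Molm-14 (FLT3-ITD AML) cells in RPMI 1640 with 10% heat-inactivated FBS were seeded at 25000 cells/well, incubated overnight at 37° C, 5% CO2, then treated with increasing compound concentrations for 72 hours. Viability was read as absorbance at 490 nm after 2˜4 hours with CellTiter96 AQueous One reagent.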

T2 sequence (P08581 25-1390): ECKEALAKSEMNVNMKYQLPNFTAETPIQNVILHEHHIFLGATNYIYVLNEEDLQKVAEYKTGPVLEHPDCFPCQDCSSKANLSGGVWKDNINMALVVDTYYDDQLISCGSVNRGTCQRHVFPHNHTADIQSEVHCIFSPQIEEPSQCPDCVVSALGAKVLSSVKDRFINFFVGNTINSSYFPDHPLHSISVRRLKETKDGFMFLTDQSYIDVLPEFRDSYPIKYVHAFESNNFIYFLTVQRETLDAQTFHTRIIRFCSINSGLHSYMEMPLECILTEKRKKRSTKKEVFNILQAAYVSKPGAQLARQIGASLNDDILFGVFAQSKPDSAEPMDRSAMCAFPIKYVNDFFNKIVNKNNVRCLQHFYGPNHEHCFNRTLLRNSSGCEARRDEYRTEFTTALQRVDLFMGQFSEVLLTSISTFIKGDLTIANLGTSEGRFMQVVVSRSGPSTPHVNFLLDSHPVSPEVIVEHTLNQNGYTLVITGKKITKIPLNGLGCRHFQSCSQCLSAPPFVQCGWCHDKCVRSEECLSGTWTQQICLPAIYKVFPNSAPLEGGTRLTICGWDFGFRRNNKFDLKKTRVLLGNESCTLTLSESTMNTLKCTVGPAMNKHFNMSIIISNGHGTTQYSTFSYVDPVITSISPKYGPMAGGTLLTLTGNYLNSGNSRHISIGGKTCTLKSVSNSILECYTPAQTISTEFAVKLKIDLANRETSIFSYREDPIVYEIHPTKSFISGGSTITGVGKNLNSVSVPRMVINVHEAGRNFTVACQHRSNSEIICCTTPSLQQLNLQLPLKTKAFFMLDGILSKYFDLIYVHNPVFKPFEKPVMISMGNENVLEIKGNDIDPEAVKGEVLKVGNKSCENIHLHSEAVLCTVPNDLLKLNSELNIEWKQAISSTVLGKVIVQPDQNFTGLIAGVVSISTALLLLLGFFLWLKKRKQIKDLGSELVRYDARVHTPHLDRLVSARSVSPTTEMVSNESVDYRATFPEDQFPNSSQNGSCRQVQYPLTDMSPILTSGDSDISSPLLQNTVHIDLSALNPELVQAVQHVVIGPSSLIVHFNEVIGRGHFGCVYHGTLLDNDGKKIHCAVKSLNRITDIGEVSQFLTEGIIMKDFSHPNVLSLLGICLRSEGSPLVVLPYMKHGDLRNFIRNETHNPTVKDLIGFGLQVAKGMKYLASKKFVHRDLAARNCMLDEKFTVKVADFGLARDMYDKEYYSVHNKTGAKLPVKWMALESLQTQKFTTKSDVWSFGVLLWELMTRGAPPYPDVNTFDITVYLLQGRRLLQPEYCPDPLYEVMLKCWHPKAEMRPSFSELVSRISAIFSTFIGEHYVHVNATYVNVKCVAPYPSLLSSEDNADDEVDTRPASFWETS

| IC50 [1] | IC50 [2] | IC50 [3] | Compound |
| --- | --- | --- | --- |
| 0.001 to 0.01 µM | > 1 µM | 0.03 to 0.1 µM | Cn1ncc2ccc(-c3n[nH]c4c3Cc3sc(-c5cccc(C(=O)N6CCOCC6)c5)cc3-4)cc21 [Compound 37, (3-(3-(1-methyl-1H-indazol-6-yl)-1,4-dihydro-thieno[2′,3′:4,5]cyclopenta [1,2-c]pyrazol-6-yl)phenyl)(morpholino) methanone] |
| 0.001 to 0.01 µM | > 1 µM | 0.03 to 0.1 µM | Cn1ncc2ccc(-c3n[nH]c4c3Cc3sc(-c5ccc(C(=O)N6CCCC6)cc5)cc3-4)cc21 [Compound 38, (4-(3-(1-methyl-1H-indazol-6-yl)-1,4-dihydro-thieno[2′,3′:4,5]cyclopenta [1,2-c]pyrazol-6-yl)phenyl)(pyrrolidin-1-yl) methanone] |
| 0.001 to 0.01 µM | > 1 µM | 0.03 to 0.1 µM | Cn1ncc2ccc(-c3n[nH]c4c3Cc3sc(-c5ccc(CN6CCSCC6)cc5)cc3-4)cc21 [Compound 39, 3-(1-methyl-1H-indazol-6-yl)-6-(4-(thiomorpho-linomethyl)phenyl)-1,4-dihydrothieno[2′,3′:4,5] cyclopenta[1,2-c]pyrazole] |
| 0.001 to 0.01 µM | > 1 µM | < 0.03 µM | Cn1ncc2ccc(-c3n[nH]c4c3Cc3sc(-c5cnc(C(=O)N6CCOCC6)nc5)cc3-4)cc21 [Compound 41, (5-(3-(1-methyl-1H-indazol-6-yl)-1,4-dihydrothieno[2′,3′:4,5]cyclopenta[1,2-c]pyrazol-6-yl)pyrimidin-2-yl) (morpholino)methanone] |
| 0.001 to 0.01 µM | > 1 µM | 0.1 to 0.3 µM | CC(C)n1ncc2ccc(-c3n[nH]c4c3Cc3sc(-c5ccc(CN6CCOCC6)cc5)cc3-4)cc21 [Compound 42, 4-(4-(3-(1-isopropyl-1H-indazol-6-yl)-1,4-dihydro-thieno[2′,3′:4,5]cyclopenta [1,2-c]pyrazol-6-yl)benzyl)morpholine] |
| 0.001 to 0.01 µM | > 1 µM | 0.03 to 0.1 µM | COc1cc(-c2cc3c(s2)Cc2c(-c4ccc5cnn(C)c5c4)n[nH]c2-3)ccc1C(=O)N1CCOCC1 [Compound 43, (2-methoxy-4-(3-(1-methyl-1H-indazol-6-yl)-1,4-dihydrothieno [2′,3′:4,5]cyclopenta [1,2-c]pyrazol-6-yl)phenyl)(morpholino) methanone] |
| < 0.001 µM | > 1 µM | < 0.03 µM | Cn1ncc2ccc(-c3n[nH]c4c3Cc3sc(-c5ccc(C(=O)N6CCOCC6)c(F)c5)cc3-4)cc21 [Compound 44, (2-fluoro-4-(3-(1-methyl-1H-indazol-6-yl)-1,4-dihydrothieno[2′,3′:4,5]cyclopenta[1,2-c]pyrazol-6-yl)phenyl)(morpholino) methanone] |
| < 0.001 µM | > 1 µM | < 0.03 µM | Cn1ncc2ccc(-c3n[nH]c4c3Cc3sc(-c5cnc(N)nc5)cc3-4)cc21 [Compound 45, 5-(3-(1-methyl-1H-indazol-6-yl)-1,4-dihydrothieno [2′,3′:4,5]cyclopenta[l,2-c]pyrazol-6-yl)pyrimidin-2-amine] |
| < 0.001 µM | > 1 µM | < 0.03 µM | Cn1cc(-c2cc3c(s2)Cc2c(-c4ccc5cnn(C)c5c4)n[nH]c2-3)cc1C(=O)N1CCOCC1 [Compound 46, (1-methyl-4-(3-(1-methyl-1H-indazol-6-yl)-1,4-dihydrothieno[2′,3′:4,5]cyclopenta[1,2-c]pyrazol-6-yl)-1H-pyrrol-2-yl) (morpholino)methanone] |
| < 0.001 µM | > 1 µM | < 0.03 µM | Cn1ncc2ccc(-c3n[nH]c4c3Cc3sc(-c5ccc(S(=O)(=O)N6CCOCC6)cc5)cc3-4)cc21 [Compound 47, 4-((4-(3-(1-methyl-1H-indazol-6-yl)-1,4-dihydro-thieno[2′,3′:4,5]cyclopenta [1,2-c]pyrazol-6-yl)phenyl)sulfonyl) morpholine] |
| < 0.001 µM | > 1 µM | < 0.03 µM | Cn1ncc2ccc(-c3n[nH]c4c3Cc3sc(-c5csc(C(=O)N6CCOCC6)c5)cc3-4)cc21 [Compound 48, (4-(3-(1-methyl-1H-indazol-6-yl)-1,4-dihydro-thieno[2′,3′:4,5]cyclopenta [1,2-c]pyrazol-6-yl)thiophen-2-yl) (morpholino)methanone] |
| < 0.001 µM | > 1 µM | < 0.03 µM | CN(C)C(=O)c1ccc(-c2cc3c(s2)Cc2c(-c4ccc5cnn(C)c5c4)n[nH]c2-3)cc1 [Compound 49, N,N-dimethyl-4-(3-(1-methyl-1H-indazol-6-yl)-1,4-dihydrothieno [2′,3′:4,5]cyclopenta [1,2-c]pyrazol-6-yl) benzamide] |
| < 0.001 µM | > 1 µM | 0.03 to 0.1 µM | CN(C)S(=O)(=O)c1ccc(-c2cc3c(s2)Cc2c(-c4ccc5cnn(C)c5c4)n[nH]c2-3)cc1 [Compound 50, N,N-dimethyl-4-(3-(1-methyl-1H-indazol-6-yl)-1,4-dihydrothieno [2′,3′:4,5]cyclopenta [1,2-c]pyrazol-6-yl) benzenesulfonamide] |
| < 0.001 µM | > 1 µM | 0.03 to 0.1 µM | Cn1ncc2ccc(-c3n[nH]c4c3Cc3sc(-c5ccc(CN6CCOCC6)s5)cc3-4)cc21 [Compound 51, 4-((5-(3-(1-methyl-1H-indazol-6-yl)-1,4-dihydro-thieno[2′,3′:4,5]cyclopenta [1,2-c]pyrazol-6-yl)thiophen-2-yl)methyl) morpholine] |
| < 0.001 µM | > 1 µM | 0.03 to 0.1 µM | Cn1ncc2ccc(-c3n[nH]c4c3Cc3sc(-c5csc(CN6CCOCC6)c5)cc3-4)cc21 [Compound 52, 4-((4-(3-(1-methyl-1H-indazol-6-yl)-1,4-dihydro-thieno[2′,3′:4,5]cyclopenta [1,2-c]pyrazol-6-yl)thiophen-2-yl)methyl) morpholine] |
| 0.001 to 0.01 µM | > 1 µM | 0.1 to 0.3 µM | Cn1ncc2ccc(-c3n[nH]c4c3Cc3sc(-c5cc(F)c(CN6CCOCC6)c(F)c5)cc3-4)cc21 [Compound 53, 4-(2,6-difluoro-4-(3-(1-methyl-1H-indazol-6-yl)-1,4-dihydrothieno [2′,3′:4,5]cyclopenta [1,2-c]pyrazol-6-yl)benzyl)morpholine] |
| < 0.001 µM | > 1 µM | 0.03 to 0.1 µM | C[C@@H]1CN(Cc2ccc(-c3cc4c(s3)Cc3c(-c5ccc6cnn(C)c6c5)n[nH]c3-4)cc2)C[C@H](C)O1 [Compound 54, (2S,6R)-2,6-dimethyl-4-(4-(3-(1-methyl-1H-indazol-6-yl)-1,4-dihydro-thieno[2′,3′:4,5]cyclopenta [1,2-c]pyrazol-6-yl)benzyl)morpholine] |
| 0.001 to 0.01 µM | > 1 µM | 0.03 to 0.1 µM | Cn1ncc2ccc(-c3n[nH]c4c3Cc3sc(-c5cc(C(=O)N6CCOCC6)ccn5)cc3-4)cc21 [Compound 56, (2-(3-(1-methyl-1H-indazol-6-yl)-1,4-dihydro-thieno[2′,3′:4,5]cyclopenta [1,2-c]pyrazol-6-yl)pyridin-4-yl)(morpholino) methanone] |
| < 0.001 µM | > 1 µM | < 0.03 µM | Cn1ncc2ccc(-c3n[nH]c4c3Cc3sc(C5=CCN(C(=O)N6CCOCC6)CC5)cc3-4)cc21 [Compound 57, (4-(3-(1-methyl-1H-indazol-6-yl)-1,4-dihydro-thieno[2′,3′:4,5]cyclopenta [1,2-c]pyrazol-6-yl)-3,6-dihydropyridin-1(2H)-yl) (morpholino)methanone] |
| 0.001 to 0.01 µM | > 1 µM | 0.1 to 0.3 µM | Cn1ncc2ccc(-c3n[nH]c4c3Cc3sc(C5CCN(C(=O)OC(C)(C)C)CC5)cc3-4)cc21 [Compound 58, tert-butyl-4-(3-(1-methyl-1H-indazol-6-yl)-1,4-dihydrothieno[2′,3′:4,5]cyclopenta[1,2-c]pyrazol-6-yl)piperidine-1-carboxylate] |
